Measured values from patent US10168342B2, “Lipid probes and uses thereof” (THE SCRIPPS RESEARCH INSTITUTE, priority 2015, dated 2019).
Read-outs that look alike come from different tables or passages of the source.

Legend:
[1] = molecular target: T1, AEA-DA lipid probe targets in Neuro2a cells (Mus musculus, UniProt Q8BHN3)
T1 sequence (Q8BHN3 33-944): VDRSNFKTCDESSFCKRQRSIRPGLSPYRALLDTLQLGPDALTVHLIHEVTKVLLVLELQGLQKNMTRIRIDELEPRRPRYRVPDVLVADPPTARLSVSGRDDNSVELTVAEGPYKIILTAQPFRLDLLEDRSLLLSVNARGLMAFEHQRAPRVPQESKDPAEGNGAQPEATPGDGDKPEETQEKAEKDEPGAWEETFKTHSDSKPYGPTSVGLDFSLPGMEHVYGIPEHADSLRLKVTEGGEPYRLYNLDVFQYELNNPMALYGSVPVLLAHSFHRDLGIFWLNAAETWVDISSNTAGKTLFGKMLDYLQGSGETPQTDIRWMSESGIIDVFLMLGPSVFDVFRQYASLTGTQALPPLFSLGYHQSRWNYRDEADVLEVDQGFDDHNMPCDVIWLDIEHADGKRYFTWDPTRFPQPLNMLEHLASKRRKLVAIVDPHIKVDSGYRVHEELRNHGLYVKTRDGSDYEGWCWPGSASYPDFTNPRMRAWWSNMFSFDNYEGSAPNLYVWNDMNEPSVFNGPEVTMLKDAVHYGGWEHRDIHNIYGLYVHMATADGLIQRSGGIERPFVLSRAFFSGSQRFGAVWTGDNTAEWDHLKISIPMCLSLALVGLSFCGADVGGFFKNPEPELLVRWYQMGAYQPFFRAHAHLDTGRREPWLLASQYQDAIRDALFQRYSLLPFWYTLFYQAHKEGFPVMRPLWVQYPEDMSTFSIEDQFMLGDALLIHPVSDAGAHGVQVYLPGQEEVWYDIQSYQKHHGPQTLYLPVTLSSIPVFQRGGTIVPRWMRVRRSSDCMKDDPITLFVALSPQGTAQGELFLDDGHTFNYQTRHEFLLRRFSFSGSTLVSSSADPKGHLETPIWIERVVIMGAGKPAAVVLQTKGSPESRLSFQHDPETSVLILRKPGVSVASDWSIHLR

[2] = molecular target: T2, AEA-DA lipid probe targets in Neuro2a cells (Mus musculus, UniProt Q91WS0)
T2 sequence (Q91WS0 1-108): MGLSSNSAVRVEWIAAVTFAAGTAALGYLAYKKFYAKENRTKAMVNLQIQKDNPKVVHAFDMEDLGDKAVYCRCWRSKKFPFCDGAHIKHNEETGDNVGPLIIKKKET

[3] = molecular target: T3, AEA-DA lipid probe targets in Neuro2a cells (Mus musculus, UniProt Q99LR1)
T3 sequence (Q99LR1 1-398): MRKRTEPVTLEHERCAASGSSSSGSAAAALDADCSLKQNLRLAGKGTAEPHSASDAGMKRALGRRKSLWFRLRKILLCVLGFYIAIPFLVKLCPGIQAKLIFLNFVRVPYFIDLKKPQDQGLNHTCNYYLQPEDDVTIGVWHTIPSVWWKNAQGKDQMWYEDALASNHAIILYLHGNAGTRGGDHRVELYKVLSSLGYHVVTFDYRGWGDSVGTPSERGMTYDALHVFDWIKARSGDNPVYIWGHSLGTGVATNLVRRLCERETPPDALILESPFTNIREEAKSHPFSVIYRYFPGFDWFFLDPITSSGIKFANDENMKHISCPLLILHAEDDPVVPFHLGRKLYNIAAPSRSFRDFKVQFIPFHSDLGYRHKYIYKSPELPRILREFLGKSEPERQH

[4] = molecular target: AEA-DA lipid probe targets in Neuro2a cells (Mus musculus, UniProt P62821)
[5] = molecular target: T4, AEA-DA lipid probe targets in Neuro2a cells (Mus musculus, UniProt Q9WTQ8)
T4 sequence (Q9WTQ8 1-209): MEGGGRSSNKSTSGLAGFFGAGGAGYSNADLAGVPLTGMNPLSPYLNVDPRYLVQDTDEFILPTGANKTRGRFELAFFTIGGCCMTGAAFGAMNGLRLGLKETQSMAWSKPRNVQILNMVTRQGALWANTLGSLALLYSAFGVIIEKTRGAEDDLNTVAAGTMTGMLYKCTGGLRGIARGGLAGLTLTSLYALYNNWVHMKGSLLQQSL

[6] = molecular target: T5, AEA-DA lipid probe targets in Neuro2a cells (Mus musculus, UniProt Q9Z0R9); details: for SILAC ratio, FADS2 (Q9Z0R9): Neuro2a cells, AEA-DA probe
T5 sequence (Q9Z0R9 1-444): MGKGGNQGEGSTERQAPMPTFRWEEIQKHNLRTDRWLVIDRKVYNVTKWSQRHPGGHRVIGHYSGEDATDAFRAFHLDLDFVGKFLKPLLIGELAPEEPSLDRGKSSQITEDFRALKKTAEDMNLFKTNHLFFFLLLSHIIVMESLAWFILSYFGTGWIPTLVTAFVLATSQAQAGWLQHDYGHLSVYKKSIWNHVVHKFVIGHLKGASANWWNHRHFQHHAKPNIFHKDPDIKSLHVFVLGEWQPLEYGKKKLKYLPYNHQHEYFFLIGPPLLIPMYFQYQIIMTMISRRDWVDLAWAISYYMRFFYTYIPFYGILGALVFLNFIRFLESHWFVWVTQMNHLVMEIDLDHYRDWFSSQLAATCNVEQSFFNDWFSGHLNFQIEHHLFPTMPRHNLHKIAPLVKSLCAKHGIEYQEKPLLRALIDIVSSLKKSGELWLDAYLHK

[7] = molecular target: T6, AEA-DA lipid probe targets in Neuro2a cells (Mus musculus, UniProt Q8BTX9)
T6 sequence (Q8BTX9 1-330): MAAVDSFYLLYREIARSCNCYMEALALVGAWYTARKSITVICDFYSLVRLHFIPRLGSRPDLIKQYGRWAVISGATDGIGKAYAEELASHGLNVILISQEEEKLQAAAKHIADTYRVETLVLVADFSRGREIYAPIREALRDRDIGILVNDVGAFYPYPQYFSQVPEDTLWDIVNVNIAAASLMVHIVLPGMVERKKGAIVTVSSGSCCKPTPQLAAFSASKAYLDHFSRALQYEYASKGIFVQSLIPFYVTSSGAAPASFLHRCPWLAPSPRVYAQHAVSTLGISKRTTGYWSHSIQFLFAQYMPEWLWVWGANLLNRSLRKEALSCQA

[8] = molecular target: AEA-DA lipid probe targets in Neuro2a cells (Mus musculus, UniProt P09055)
Sequence of AEA-DA lipid probe targets in Neuro2a cells (Mus musculus, UniProt P09055) (P09055 21-798): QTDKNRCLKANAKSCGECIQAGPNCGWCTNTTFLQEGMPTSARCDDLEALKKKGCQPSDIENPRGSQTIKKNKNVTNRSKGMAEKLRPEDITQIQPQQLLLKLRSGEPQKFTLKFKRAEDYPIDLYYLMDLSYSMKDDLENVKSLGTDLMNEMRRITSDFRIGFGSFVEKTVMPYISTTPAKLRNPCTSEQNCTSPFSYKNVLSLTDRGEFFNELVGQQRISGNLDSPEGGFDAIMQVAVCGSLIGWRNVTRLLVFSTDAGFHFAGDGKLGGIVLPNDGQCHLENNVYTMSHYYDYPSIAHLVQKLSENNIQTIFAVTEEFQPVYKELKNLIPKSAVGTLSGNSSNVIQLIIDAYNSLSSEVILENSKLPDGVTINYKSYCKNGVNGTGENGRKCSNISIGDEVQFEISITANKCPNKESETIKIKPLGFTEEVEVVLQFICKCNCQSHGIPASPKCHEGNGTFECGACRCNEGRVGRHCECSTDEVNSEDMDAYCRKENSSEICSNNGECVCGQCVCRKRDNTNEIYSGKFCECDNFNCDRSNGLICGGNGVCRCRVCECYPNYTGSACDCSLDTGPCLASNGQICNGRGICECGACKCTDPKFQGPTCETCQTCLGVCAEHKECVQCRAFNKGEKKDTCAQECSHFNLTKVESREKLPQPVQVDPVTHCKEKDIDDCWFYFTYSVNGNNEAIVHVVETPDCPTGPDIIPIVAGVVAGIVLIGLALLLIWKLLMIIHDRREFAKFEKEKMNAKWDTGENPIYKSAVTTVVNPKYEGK

Sequence of AEA-DA lipid probe targets in Neuro2a cells (Mus musculus, UniProt P62821) (P62821 whole entry): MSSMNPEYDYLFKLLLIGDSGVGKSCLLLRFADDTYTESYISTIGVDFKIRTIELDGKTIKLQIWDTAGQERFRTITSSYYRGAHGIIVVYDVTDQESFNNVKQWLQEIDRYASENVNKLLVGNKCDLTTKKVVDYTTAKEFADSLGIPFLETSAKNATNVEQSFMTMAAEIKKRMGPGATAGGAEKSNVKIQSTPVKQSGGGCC

C=CCN(C)CCCCCCOc1ccc(C(=O)c2ccc(Br)cc2)c(F)c1 [Ro 48-8071, reference compound]
SILAC ratio Ganab ([1]; competitor 25 μM): 0.9
SILAC ratio Cisd1 ([2]; competitor 25 μM): 1.1
SILAC ratio, Abhd12 ([3]; competitor 25 μM): 1.0
SILAC ratio Rab1A ([4]; competitor 25 μM): 1.0
SILAC ratio, Timm23 ([5]; competitor 25 μM): 1.0
SILAC ratio, FADS2 (Q9Z0R9) ([6]; competitor 25 μM): 1.2
SILAC ratio, Fads2 ([6]; competitor 25 μM): 1.2
SILAC ratio, Hsdl1 ([7]; competitor 25 μM): 0.9

CN1CCN(C(=O)c2[nH]c3ccc([N+](=O)[O-])cc3c2-c2ccccc2)CC1 [MJN228, (4-Methylpiperazin-1-yl)(5-nitro-3-phenyl-1H-indol-2-yl)methanone]
SILAC ratio Ganab ([1]; competitor 10 μM): 1.2
SILAC ratio Ganab ([1]; competitor 25 μM): 1.2
SILAC ratio Ganab ([1]; competitor 50 μM): 1.5
SILAC ratio Ganab ([1]; competitor 100 μM): 1.6
SILAC ratio Cisd1 ([2]; competitor 10 μM): 1.3
SILAC ratio Cisd1 ([2]; competitor 25 μM): 1.5
SILAC ratio Cisd1 ([2]; competitor 50 μM): 1.4
SILAC ratio Cisd1 ([2]; competitor 100 μM): 2.4
SILAC ratio, Abhd12 ([3]; competitor 10 μM): 1.2
SILAC ratio, Abhd12 ([3]; competitor 25 μM): 1.2
SILAC ratio, Abhd12 ([3]; competitor 50 μM): 1.2
SILAC ratio, Abhd12 ([3]; competitor 100 μM): 1.4
SILAC ratio Rab1A ([4]; competitor 10 μM): 1.1
SILAC ratio Rab1A ([4]; competitor 25 μM): 1.3
SILAC ratio Rab1A ([4]; competitor 50 μM): 1.3
SILAC ratio Rab1A ([4]; competitor 100 μM): 1.3
SILAC ratio, Timm23 ([5]; competitor 10 μM): 1.0
SILAC ratio, Timm23 ([5]; competitor 25 μM): 1.2
SILAC ratio, Timm23 ([5]; competitor 50 μM): 1.3
SILAC ratio, Timm23 ([5]; competitor 100 μM): 1.5
SILAC ratio, FADS2 (Q9Z0R9) ([6]; competitor 25 μM): 1.8
SILAC ratio, Fads2 ([6]; competitor 10 μM): 1.3
SILAC ratio, Fads2 ([6]; competitor 25 μM): 1.8
SILAC ratio, Fads2 ([6]; competitor 50 μM): 1.9
SILAC ratio, Fads2 ([6]; competitor 100 μM): 2.8
SILAC ratio Itgb1 ([8]; competitor 10 μM): 1.2
SILAC ratio Itgb1 ([8]; competitor 25 μM): 1.3
SILAC ratio Itgb1 ([8]; competitor 50 μM): 1.1
SILAC ratio Itgb1 ([8]; competitor 100 μM): 1.1
SILAC ratio, Hsdl1 ([7]; competitor 10 μM): 1.1
SILAC ratio, Hsdl1 ([7]; competitor 25 μM): 1.2
SILAC ratio, Hsdl1 ([7]; competitor 50 μM): 1.0
SILAC ratio, Hsdl1 ([7]; competitor 100 μM): 1.5

CCCCC/C=C\C/C=C\C/C=C\C/C=C\CCCC(=O)NCCO [AEA, anandamide, reference compound]
SILAC ratio Ganab ([1]; competitor 200 μM): 1.1
SILAC ratio Cisd1 ([2]; competitor 200 μM): 1.6
SILAC ratio, Abhd12 ([3]; competitor 200 μM): 1.8
SILAC ratio Rab1A ([4]; competitor 200 μM): 1.2
SILAC ratio, Timm23 ([5]; competitor 200 μM): 1.8
SILAC ratio, FADS2 (Q9Z0R9) ([6]; competitor 200 μM): 2.5
SILAC ratio, Fads2 ([6]; competitor 200 μM): 2.5
SILAC ratio Itgb1 ([8]; competitor 200 μM): 1.5
SILAC ratio, Hsdl1 ([7]; competitor 200 μM): 2.5

CN1CCN(C(=O)c2c(-c3ccccc3)c3cc([N+](=O)[O-])ccc3n2C)CC1 [KML110, (1-Methyl-5-nitro-3-phenyl-1H-indol-2-yl)(4-methylpiperazin-1-yl)methanone]
SILAC ratio Ganab ([1]; competitor 25 μM): 1.3
SILAC ratio Cisd1 ([2]; competitor 25 μM): 1.6
SILAC ratio, Abhd12 ([3]; competitor 25 μM): 1.2
SILAC ratio Rab1A ([4]; competitor 25 μM): 1.3
SILAC ratio, Timm23 ([5]; competitor 25 μM): 1.3
SILAC ratio, Fads2 ([6]; competitor 25 μM): 1.4
SILAC ratio Itgb1 ([8]; competitor 25 μM): 1.0
SILAC ratio, Hsdl1 ([7]; competitor 25 μM): 1.4

O=C(/C=C/c1cccnc1)NCCCCC1CCN(C(=O)c2ccccc2)CC1 [FK-866, reference compound]
SILAC ratio Ganab ([1]; competitor 25 μM): 1.1
SILAC ratio Cisd1 ([2]; competitor 25 μM): 1.1
SILAC ratio, Abhd12 ([3]; competitor 25 μM): 1.0
SILAC ratio Rab1A ([4]; competitor 25 μM): 1.1
SILAC ratio, Timm23 ([5]; competitor 25 μM): 1.1
SILAC ratio, FADS2 (Q9Z0R9) ([6]; competitor 25 μM): 1.2
SILAC ratio, Fads2 ([6]; competitor 25 μM): 1.2
SILAC ratio, Hsdl1 ([7]; competitor 25 μM): 1.0
